Experimental findings from BindingDB's records for patent US20240360134 (Actelion Pharmaceuticals, 2024) are described below.

In test [1] the target is T1, Platelet-derived growth factor receptor beta (Homo sapiens, UniProt P09619). The test can be described thus: PDGFRβ LanthaScreen Assay.
Method: Dispensing inhibitors: Using Echo, dispense 40 nL/well (or less) compound serial dilutions in DMSO onto the assay plate.Step 2. Dispensing Kinase-Tracer solution: Add 4 μL/well Kinase-Tracer solution. Seal the plate with optically transparent plate seal. […] Detection: Read TR-FRET signals after 18 hours incubation at room temperature.III. […] IC50 values are determined from a 4-parameter fit, using the following equation: Y=Bottom+(Top−Bottom)/(1+10((Log IC50−X)*Hill slope)), where X=log10 of the compound concentration; top can be defined by PC; bottom defined by NC.
Test [2] addresses Vascular endothelial growth factor receptor 2 (Homo sapiens, UniProt P35968). The test can be described thus: VEGFR ADP GLO Assay. As for the experimental part: Step 1. Dispensing inhibitors/controls: Using Echo, dispense 10 nL/well compound serial dilutions in DMSO to columns 1-22 (in 384-well plates) or columns 1-44 (in 1536-well plates). Dilution series=11 pt, 3-fold dilutions. The top compound concentration in the source plate is […]. The top compound concentration in the assay plate is 10 uM. Using Echo, dispense 10 nl/well DMSO to column 23 (in 384-well plates) or columns 45-47 (in 1536-well plates). These wells will serve as negative control wells Using Echo, dispense 10 nl/well 400 uM TAK-593 in DMSO to column 24 (in 384-well plates) or column 48 (in 1536-well plates). The final concentration of TAK-593 in the assay should be 1 uM. These wells will serve as positive control wells.Step 2. Pre-incubation of inhibitors with kinase: Add 2 μL/well 2× kinase solution. Centrifuge at 1000 rpm for 1 min. Incubate at room temperature for 30 min.Step 3. Kinase cascade reaction: Add 2 μL/well 2× substrate/ATP solution to initiate kinase reactions. Centrifuge at 1000 rpm for 1 min. Incubate at room temperature for 180 min.Final concentrations of components in the assay:[VEGFR2]=5 nM;[ATP]=1.2 mM;[Srctide]=1 mg/mL;[DMSO]≤1%.Step 4. Quench: Add 2 uL/well ADP Glo Reagent+0.05% CHAPS. Centrifuge at 1000 rpm for 1 min; Incubate at room temperature for one hour.Step 5. Detection: Add 2 uL/well Kinase Detection Reagent+0.05% CHAPS. Centrifuge at 1000 rpm for 1 min; Incubate at room temperature for 1 hour; Read Luminescence on a plate reader.
A general note: ADP-Glo first removes unused ATP, then detects ADP through luciferase.

For test [3], the target named is T1, Platelet-derived growth factor receptor beta. The test can be described thus: PDGFRβ HTRF Assay.
Method: PDGFRβ E+I pre-incubation: Add 2 μL 2× protein solution to columns 1-24 using the Multidrop Combi. Centrifuge at 1000 rpm for 1 min. Incubate 30 min at RTStep 2. Enzymatic reaction: Add 2 μL substrate solution to columns 1-24 to initiate the reaction using the Multidrop Combi; cover/seal the assay plate to reduce evaporation. Centrifuge at 1000 rpm for 1 min. […] Quench/Detection: Add 2 μl 3× quench/detection solution to columns 1-24 using the Multidrop Combi; cover/seal the plate. Centrifuge 1 min 1000 rpm. Incubate at RT for 60 min.

Vascular endothelial growth factor receptor 2, sequence (P35968 whole entry): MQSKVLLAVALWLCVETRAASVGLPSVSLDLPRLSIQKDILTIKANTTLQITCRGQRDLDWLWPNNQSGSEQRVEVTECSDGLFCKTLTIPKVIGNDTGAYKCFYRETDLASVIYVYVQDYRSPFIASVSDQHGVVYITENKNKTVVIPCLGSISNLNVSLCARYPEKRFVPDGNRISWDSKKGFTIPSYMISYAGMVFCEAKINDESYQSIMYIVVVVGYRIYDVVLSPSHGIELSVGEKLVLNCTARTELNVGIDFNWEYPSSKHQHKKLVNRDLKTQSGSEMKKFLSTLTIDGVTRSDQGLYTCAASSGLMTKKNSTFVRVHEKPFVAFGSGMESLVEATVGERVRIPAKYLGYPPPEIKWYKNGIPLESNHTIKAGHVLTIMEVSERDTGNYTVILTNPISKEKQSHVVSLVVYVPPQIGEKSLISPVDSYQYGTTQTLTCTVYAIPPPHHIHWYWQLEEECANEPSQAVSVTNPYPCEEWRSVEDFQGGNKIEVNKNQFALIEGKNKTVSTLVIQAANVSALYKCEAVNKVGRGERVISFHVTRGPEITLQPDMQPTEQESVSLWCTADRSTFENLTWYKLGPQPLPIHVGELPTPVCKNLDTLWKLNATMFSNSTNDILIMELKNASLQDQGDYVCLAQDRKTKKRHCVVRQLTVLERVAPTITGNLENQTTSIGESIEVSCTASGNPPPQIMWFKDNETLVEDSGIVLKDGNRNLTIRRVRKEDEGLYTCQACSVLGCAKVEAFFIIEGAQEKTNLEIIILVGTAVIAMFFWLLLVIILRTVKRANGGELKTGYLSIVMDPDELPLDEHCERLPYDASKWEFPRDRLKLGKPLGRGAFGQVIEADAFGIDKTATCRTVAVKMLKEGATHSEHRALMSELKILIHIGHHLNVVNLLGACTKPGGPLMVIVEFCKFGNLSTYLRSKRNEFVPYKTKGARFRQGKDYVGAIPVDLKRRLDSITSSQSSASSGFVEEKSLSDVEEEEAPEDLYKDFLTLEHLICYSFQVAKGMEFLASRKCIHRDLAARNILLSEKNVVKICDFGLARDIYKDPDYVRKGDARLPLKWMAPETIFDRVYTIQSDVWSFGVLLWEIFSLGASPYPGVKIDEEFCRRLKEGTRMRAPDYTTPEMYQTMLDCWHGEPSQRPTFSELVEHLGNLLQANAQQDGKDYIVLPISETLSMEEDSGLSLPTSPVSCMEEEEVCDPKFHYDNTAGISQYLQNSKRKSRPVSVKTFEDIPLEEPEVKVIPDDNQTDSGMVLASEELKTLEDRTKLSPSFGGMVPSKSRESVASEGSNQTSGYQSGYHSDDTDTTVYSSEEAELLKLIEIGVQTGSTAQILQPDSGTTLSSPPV
T1 sequence (P09619 whole entry): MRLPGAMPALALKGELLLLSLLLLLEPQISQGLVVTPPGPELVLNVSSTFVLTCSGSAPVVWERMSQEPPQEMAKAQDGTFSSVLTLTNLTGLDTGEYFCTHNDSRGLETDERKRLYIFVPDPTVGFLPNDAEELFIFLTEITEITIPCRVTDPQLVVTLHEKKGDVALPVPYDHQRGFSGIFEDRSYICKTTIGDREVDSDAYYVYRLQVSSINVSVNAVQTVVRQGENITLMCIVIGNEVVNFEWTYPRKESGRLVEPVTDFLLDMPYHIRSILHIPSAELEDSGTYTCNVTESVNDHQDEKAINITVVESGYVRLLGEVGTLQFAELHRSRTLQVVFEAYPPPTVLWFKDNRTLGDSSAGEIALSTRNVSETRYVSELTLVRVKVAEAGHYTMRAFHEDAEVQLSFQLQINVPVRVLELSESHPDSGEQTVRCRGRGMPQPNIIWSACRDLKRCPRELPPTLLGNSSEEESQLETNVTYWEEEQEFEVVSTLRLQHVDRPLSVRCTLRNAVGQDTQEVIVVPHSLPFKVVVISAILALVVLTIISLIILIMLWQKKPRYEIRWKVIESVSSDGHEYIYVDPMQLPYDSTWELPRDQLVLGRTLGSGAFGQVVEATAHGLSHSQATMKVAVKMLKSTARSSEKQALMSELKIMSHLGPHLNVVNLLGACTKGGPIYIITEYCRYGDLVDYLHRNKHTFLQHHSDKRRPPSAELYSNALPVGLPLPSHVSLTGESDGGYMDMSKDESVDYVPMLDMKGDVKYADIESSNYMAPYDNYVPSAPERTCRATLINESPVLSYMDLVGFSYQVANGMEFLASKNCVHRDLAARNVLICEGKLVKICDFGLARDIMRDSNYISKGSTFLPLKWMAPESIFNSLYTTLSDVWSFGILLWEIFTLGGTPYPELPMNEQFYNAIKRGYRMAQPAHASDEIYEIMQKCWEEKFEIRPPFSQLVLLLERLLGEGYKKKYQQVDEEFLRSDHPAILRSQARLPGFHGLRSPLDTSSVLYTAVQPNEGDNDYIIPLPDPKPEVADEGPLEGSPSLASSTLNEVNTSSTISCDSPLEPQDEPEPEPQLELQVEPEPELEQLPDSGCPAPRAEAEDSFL

In general, IC50 refers to the concentration at which inhibition is half-maximal. A lower IC50 goes with greater potency in that assay. As for `Cc1ncc(NC(=O)CN(CCO)C2CCCC2)cc1Nc1nn(C)c2nc(Nc3cnn(C)c3)ncc12` [US20240360134, Example 79], the IC50 in test [1] stood at 2.5 nM; in test [2], 5390 nM.

`Cc1ncc(NC(=O)CN2C[C@H](C)O[C@@H](C)C2)cc1Nc1nn(C)c2nc(Nc3cnn(C)c3)ncc12` (relative stereo) [US20240360134, Example 73]: the IC50 in test [1] was 2.6 nM; in test [2] it was 4570 nM; in test [3], 0.5 nM.

For `Cc1ncc(NC(=O)CN2CCC(F)(F)CC2)cc1Nc1nn(C)c2nc(Nc3cnn(C)c3)ncc12` [US20240360134, Example 72], the IC50 in test [1] worked out at 1.7 nM; in test [2] it was 1100 nM; in test [3], 0.27 nM.

For the molecule `Cc1ncc(NC(=O)CN2C[C@@H](C)O[C@@H](C)C2)cc1Nc1nn(C)c2nc(Nc3cnn(C)c3)ncc12` [US20240360134, Example 78], the IC50 in test [1] is 3.7 nM; in test [2], 3930 nM; in test [3], 0.59 nM.

In the case of `Cc1ncc(NC(=O)CN2CCC(F)(F)C2)cc1Nc1nn(C)c2nc(Nc3cnn(C)c3)ncc12` [US20240360134, Example 75], the values for the IC50 in test [1], in test [2] and in test [3] were 2.1 nM, 847 nM and 0.35 nM, respectively.

Take `COC(=O)C(C)(C)c1cccc(Nc2ncc3c(Nc4cc(C(=O)NCCN5CCCC5(C)C)cnc4C)nn(C)c3n2)c1` [US20240360134, Example 46]: the IC50 came to 4.9 nM in test [1], 3580 nM in test [2] and 0.81 nM in test [3].

For `Cc1ncc(NC(=O)CN2CCC[C@@H]2C)cc1Nc1nn(C)c2nc(Nc3cnn(C)c3)ncc12` [US20240360134, Example 71], the 50% inhibitory concentration (IC50) in test [1] was 2.1 nM; in test [2] it was > 7500 nM; in test [3], 0.25 nM.

With `COC(=O)Cc1cccc(Nc2ncc3c(Nc4cc(C(=O)NCCN5CCCC5(C)C)cnc4C)nn(C)c3n2)c1` [US20240360134, Example 43], the figures for the IC50 in test [1], in test [2] and in test [3] were 4.1 nM, 2080 nM and 0.54 nM, respectively.

On to `Cc1ncc(NC(=O)CN2CC(F)(F)C2)cc1Nc1nn(C)c2nc(Nc3cnn(C)c3)ncc12` [US20240360134, Example 76], for which the half-maximal inhibitory concentration (IC50) in test [1] was found to be 2.6 nM; in test [2] it was 3600 nM; in test [3], 0.42 nM.

In the case of `Cc1ncc(NC(=O)CN(CCCO)C2CCCC2)cc1Nc1nn(C)c2nc(Nc3cnn(C)c3)ncc12` [US20240360134, Example 80], the IC50 was 3.2 nM in test [1], > 7500 nM in test [2] and 0.5 nM in test [3].

In the case of `Cc1ncc(NC(=O)CN2CCC3(CC3)C2)cc1Nc1nn(C)c2nc(Nc3cnn(C)c3)ncc12` [US20240360134, Example 74], the IC50 is 1.6 nM in test [1], 5070 nM in test [2] and 0.23 nM in test [3].
